The results in this text go back to patent US11207461B2, “Drug delivery system and method for controlled and continuous delivery of drugs into the brain by bypassing the blood brain barrier” (priority 2015, dated 2021).

Structures are written as SMILES.

The conditions of data set [1]: rabbit. The source says: The device was surgically placed in a rabbit in the maxillary sinus region by removing the bone overlying the respiratory mucosa. The tip of the device was placed beneath the maxillary sinus lining mucosa in contact with the connective tissue side of the mucosa. […] FIG. 15 refers to the comparative brain values of dopamine using High Performance Liquid Chromatography, between the control and the rabbit in which dopamine was delivered in vivo in a continuous and controlled manner under the maxillary sinus mucosa using the drug delivery system. […] The drug delivery was stopped at the twentieth minute. […] FIG. 16 refers to blood values of dopamine in the rabbit after in vivo delivery of dopamine under the maxillary sinus mucosa using the device.

The conditions of data set [2]: rabbit; blood samples before and at 10, 20 and 30 minutes after start of drug delivery; FIG. 18.
Method: The device was placed into the maxillary sinus of a rabbit by perforating the maxillary sinus mucosa from the connective tissue side and placing the implant tip into the sinus cavity and above the epithelial layer. […] Whole body perfusion was done using a peristaltic pump with warm physiological saline for 20 minutes at a controlled rate. The perfused brain was then resected at the end one hour from the start of the procedure. Brain samples from different parts of the brain was analyzed using High Performance Liquid Chromatography. […] During the procedure, a blood sample was collected before drug delivery. Three blood samples were then collected at intervals of 10, 20 and 30 minutes respectively following start of drug delivery. The samples were analyzed using High Performance Liquid Chromatography.

Consider `NCCc1ccc(O)c(O)c1` [Dopamine], for which the “blood value of dopamine (HPLC) after drug delivery was stopped” value in data set [1] (blood sample at 30 minutes, delivery stopped at the twentieth minute, FIG. 16) was “peaked again”. The “blood values of dopamine (HPLC) during drug delivery” value in data set [1] (blood samples at 10 and 20 minutes after start of drug delivery, versus sample before delivery, FIG. 16) is “dipped”. The “drug in peripheral circulation during drug delivery” value in data set [1] (dopamine infused under maxillary sinus mucosa, during the 20 minute delivery) was “no increase of the drug in peripheral circulation”. In data set [1] (infused under maxillary sinus mucosa for twenty minutes at 1 milliliter per hour, perfused brain resected at one hour, samples from different parts of the brain, FIG. 15), the “brain concentration of dopamine (HPLC) compared with the normal” value is recorded as “increased concentration of dopamine in all parts of the brain except diencephalon”.
In the case of `CCN(CC)CC(=O)Nc1c(C)cccc1C` [Lignocaine], in data set [2], the “blood values of lignocaine (HPLC), drug in peripheral circulation” value is “no drug in the peripheral circulation”.
